Assays:
[1] = Tissue radioactivity 6 hours after injection into castrated female rats with and without DES; format: in vivo, Sprague-Dawley rats
Procedure: (§1) To deterine whether 16α-[^125 I]iodoestradiol would be recognized by estrogen-responsive tissues, it was injected into castrated female rats with and without diethylstilbestrol (DES); after 6 hours the concentration of radioactivity in the uterus was compared to that in several other tissues.
(§2) Female Sprague-Dawley rats (200 to 250 g) were castrated 48 hours before subcutaneous injection of ^125 I-labeled estradiol (1×10^6 count/min) dissolved in 10 μl of ethanol and 0.2 ml of saline. Twenty minutes before the administration of the iodinated estradiol, one group of rats (N=6) were injected with 5 μg of DES dissolved first in 50 μl of ethanol and then in 0.5 ml of saline. Another group of castrated rats (N=6) were injected with 0.5 ml of 10 percent ethanol in saline before receiving the radioactive steroid. The rats were killed 6 hours later and small pieces of the tissues were weighed and counted. All values are means ± standard deviations. To determine ether extractable radioactivity, the uterus, liver, and thyroid were homogenized in methanol and filtered. The filtrate was evaporated and the resulting residue was partitioned between ether and 0.1N NaHCO3. The ethereal solution was evaporated and counted and the results are tabulated below in Table I.
(§3) Several micrograms of 16α-iodoestradiol were added to the ether extract of the uterus and the mixture was submitted to high-pressure liquid chromatography. High pressure liquid chromatography was performed on a 250 by 4.6 mm Lichrosorb Diol column (merck) with methylene chloride at a flow rate of 1 ml/min. In this system 16α-iodoestradiol is eluted in 12 minutes and 16β-bromoestradiol in 8 minutes. […] The radioactivity in the thyroid gland, approximately 2000 count/min, is probably due to the uptake of free iodide arising from the metabolism of ^125 I-labeled estradiol in vivo and is equivalent to only 0.2 percent of the injected dose.

Rat Uterine Receptor = test: as above; format: in vivo, Sprague-Dawley rats
Procedure: as §1, §2, §3

[2] = target: T1, rat uterine cytosol (estrogen receptor) (Rattus norvegicus, UniProt P06211); test: Binding to rat uterine cytosol, dextran-coated charcoal
T1 construct: incubated with cytoplasm from the uteri of rats; from tissue; host or cells: uterine cytosol of ovariectomized rats
T1 sequence (P06211 1-600): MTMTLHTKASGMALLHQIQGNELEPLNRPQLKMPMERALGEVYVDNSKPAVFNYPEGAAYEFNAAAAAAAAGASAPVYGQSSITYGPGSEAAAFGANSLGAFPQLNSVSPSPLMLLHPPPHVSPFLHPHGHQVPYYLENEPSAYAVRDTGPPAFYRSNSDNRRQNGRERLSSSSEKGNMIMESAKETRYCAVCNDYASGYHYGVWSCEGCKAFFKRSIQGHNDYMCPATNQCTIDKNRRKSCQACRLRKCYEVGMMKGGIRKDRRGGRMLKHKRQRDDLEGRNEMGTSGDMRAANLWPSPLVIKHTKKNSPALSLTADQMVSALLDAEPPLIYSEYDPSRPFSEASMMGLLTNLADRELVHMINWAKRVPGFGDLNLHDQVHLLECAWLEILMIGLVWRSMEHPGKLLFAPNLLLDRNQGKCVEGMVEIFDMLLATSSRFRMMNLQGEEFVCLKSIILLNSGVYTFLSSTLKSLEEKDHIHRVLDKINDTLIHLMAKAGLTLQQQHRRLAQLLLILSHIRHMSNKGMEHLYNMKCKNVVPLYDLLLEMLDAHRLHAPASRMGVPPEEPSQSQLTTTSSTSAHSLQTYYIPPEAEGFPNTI
Procedure: Metab. […] The homogenate was centrifuged at 4000 g for 10 minutes and the resulting supernatant for 60 minutes at 150,000 g. […] Samples were incubated for 4 hours at 0° to 2° C. Free steroid was removed by addition of 250 μl of a suspension of 0.5 percent dextran-coated charcoal. The tubes were mixed and then centrifuged at […] for 10 minutes.

[3] = target: T2, estrogen receptor of human mammary tumors (Homo sapiens, UniProt P03372); test: Estrogen receptor assay in human mammary tumor cytosol; format: binding; details: 1.5 mg/ml protein
T2 construct: 124 and 126
T2 sequence (P03372 1-595): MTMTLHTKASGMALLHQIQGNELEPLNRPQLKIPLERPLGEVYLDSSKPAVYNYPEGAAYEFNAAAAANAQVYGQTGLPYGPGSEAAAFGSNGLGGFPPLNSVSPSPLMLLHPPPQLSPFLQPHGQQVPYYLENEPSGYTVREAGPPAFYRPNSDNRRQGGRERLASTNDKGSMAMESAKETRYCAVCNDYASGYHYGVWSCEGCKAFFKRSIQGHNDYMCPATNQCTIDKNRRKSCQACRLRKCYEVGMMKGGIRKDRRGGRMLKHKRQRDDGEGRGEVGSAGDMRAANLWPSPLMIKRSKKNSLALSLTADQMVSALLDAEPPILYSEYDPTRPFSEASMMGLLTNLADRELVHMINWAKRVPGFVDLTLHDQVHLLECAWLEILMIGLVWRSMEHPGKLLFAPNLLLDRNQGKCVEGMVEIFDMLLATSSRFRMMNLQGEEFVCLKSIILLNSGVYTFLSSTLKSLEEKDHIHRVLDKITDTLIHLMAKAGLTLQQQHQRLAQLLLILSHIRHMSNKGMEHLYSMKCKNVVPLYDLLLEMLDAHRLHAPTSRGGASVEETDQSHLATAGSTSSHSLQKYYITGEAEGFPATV
Procedure: Extrogen receptor human mammary tumors were kept frozen in dry ice in a pulverized form. […] The final concentration of cytosolic protein used in the assay was 1.5 mg/ml.
A pool of two different estrogen receptor-positive mammary tumors was studied.

C[C@]12CC[C@@H]3c4ccc(O)cc4CC[C@H]3[C@@H]1C[C@@H]([125I])[C@@H]2O [^125 I-E2, 16α-[^125 I]iodoestra-1,3,5(10)-triene-3,17β-diol]
Ether-extractable radioactivity ([1]; Liver): 10-15% | Ether-extractable radioactivity ([1]; Thyroid): 0-1% | Ether-extractable radioactivity ([1]; Uterus): > 90% | nature of the radioactive material in the uterus (Rat Uterine Receptor; HPLC of ether extract of uterus with 16α-iodoestradiol carrier): unmetabolized | Radioactivity, With DES (Rat Uterine Receptor; Heart, 5 μg DES, 6 hours): 26 ± 7 count/min per 100 mg of tissue | Radioactivity, Without DES (Rat Uterine Receptor; Heart, 6 hours): 23 ± 5 count/min per 100 mg of tissue | Radioactivity, With DES (Rat Uterine Receptor; Kidney, 5 μg DES, 6 hours): 75 ± 20 count/min per 100 mg of tissue | Radioactivity, Without DES (Rat Uterine Receptor; Kidney, 6 hours): 73 ± 33 count/min per 100 mg of tissue | Radioactivity, With DES (Rat Uterine Receptor; Liver, 5 μg DES, 6 hours): 425 ± 105 count/min per 100 mg of tissue | Radioactivity, Without DES (Rat Uterine Receptor; Liver, 6 hours): 446 ± 184 count/min per 100 mg of tissue | Radioactivity, With DES (Rat Uterine Receptor; Lung, 5 μg DES, 6 hours): 56 ± 11 count/min per 100 mg of tissue | Radioactivity, Without DES (Rat Uterine Receptor; Lung, 6 hours): 47 ± 23 count/min per 100 mg of tissue | Radioactivity, With DES (Rat Uterine Receptor; Muscle, 5 μg DES, 6 hours): 18 ± 12 count/min per 100 mg of tissue | Radioactivity, Without DES (Rat Uterine Receptor; Muscle, 6 hours): 33 ± 23 count/min per 100 mg of tissue | Radioactivity, With DES (Rat Uterine Receptor; Serum, 5 μg DES, 6 hours): 68 ± 6 count/min per 100 mg of tissue | Radioactivity, Without DES (Rat Uterine Receptor; Serum, 6 hours): 69 ± 11 count/min per 100 mg of tissue | Radioactivity, With DES (Rat Uterine Receptor; Thyroid, entire organ, 5 μg DES, 6 hours): 2287 ± 805 count/min | Radioactivity, Without DES (Rat Uterine Receptor; Thyroid, entire organ, 6 hours): 1839 ± 802 count/min | Radioactivity, With DES (Rat Uterine Receptor; Uterus, 5 μg DES 20 min before, 6 hours): 73 ± 8 count/min per 100 mg of tissue | Radioactivity, Without DES (Rat Uterine Receptor; Uterus, castrated rats, 6 hours after s.c. injection): 313 ± 150 count/min per 100 mg of tissue | radioactivity in the thyroid gland as share of injected dose (Rat Uterine Receptor; thyroid gland): 0.2% of the injected dose | radioactivity in the thyroid gland (Rat Uterine Receptor; thyroid gland, probably free iodide): approximately 2000 count/min | Radioactivity specifically bound, percent of added [2]: 56% | Radioactivity Bound without DES ([2]; 98 μg cytosol protein, 4 hours at 0° to 2° C., added 69,600 (125I) or 63,600 (3H) count/min): 42,600 count/min | Radioactivity specifically bound ([2]; bound without DES minus bound with DES): 38,800 count/min | Radioactivity Bound with DES ([2]; with 7×10^-7 M DES (nonspecific binding)): 3,800 count/min | receptor concentration found with the ligand ([3]; mammary tumor pool no. 124): 24 fmol/mg of protein | receptor concentration found with the ligand ([3]; mammary tumor pool no. 126): 72 fmol/mg

Reference: US4465676A, “16α Halogen substituted 3,17β-dihydroxy steroidal estrogens” (priority 1980, dated 1984)
